Data set [1] deals with T1, ATP-dependent translocase ABCB1 (Homo sapiens, UniProt P08183). Nature of the data set: TP_TRANSPORTER: RNase protection assay in embryonic 293 cells. It counts as functional, cell-based. The note with it: hek293.
Data set [2] has as its target T1, ATP-dependent translocase ABCB1. Kind of data set: TP_TRANSPORTER: RNase protection assay in HepG2 cells. It counts as functional, cell-based.

The record followed here is ChEMBL document CHEMBL2073932, “Induction of human MDR1 gene expression by 2-acetylaminofluorene is mediated by effectors of the phosphoinositide 3-kinase pathway that activate NF-kappaB signaling” (Oncogene, 2002).

T1 sequence (P08183 whole entry): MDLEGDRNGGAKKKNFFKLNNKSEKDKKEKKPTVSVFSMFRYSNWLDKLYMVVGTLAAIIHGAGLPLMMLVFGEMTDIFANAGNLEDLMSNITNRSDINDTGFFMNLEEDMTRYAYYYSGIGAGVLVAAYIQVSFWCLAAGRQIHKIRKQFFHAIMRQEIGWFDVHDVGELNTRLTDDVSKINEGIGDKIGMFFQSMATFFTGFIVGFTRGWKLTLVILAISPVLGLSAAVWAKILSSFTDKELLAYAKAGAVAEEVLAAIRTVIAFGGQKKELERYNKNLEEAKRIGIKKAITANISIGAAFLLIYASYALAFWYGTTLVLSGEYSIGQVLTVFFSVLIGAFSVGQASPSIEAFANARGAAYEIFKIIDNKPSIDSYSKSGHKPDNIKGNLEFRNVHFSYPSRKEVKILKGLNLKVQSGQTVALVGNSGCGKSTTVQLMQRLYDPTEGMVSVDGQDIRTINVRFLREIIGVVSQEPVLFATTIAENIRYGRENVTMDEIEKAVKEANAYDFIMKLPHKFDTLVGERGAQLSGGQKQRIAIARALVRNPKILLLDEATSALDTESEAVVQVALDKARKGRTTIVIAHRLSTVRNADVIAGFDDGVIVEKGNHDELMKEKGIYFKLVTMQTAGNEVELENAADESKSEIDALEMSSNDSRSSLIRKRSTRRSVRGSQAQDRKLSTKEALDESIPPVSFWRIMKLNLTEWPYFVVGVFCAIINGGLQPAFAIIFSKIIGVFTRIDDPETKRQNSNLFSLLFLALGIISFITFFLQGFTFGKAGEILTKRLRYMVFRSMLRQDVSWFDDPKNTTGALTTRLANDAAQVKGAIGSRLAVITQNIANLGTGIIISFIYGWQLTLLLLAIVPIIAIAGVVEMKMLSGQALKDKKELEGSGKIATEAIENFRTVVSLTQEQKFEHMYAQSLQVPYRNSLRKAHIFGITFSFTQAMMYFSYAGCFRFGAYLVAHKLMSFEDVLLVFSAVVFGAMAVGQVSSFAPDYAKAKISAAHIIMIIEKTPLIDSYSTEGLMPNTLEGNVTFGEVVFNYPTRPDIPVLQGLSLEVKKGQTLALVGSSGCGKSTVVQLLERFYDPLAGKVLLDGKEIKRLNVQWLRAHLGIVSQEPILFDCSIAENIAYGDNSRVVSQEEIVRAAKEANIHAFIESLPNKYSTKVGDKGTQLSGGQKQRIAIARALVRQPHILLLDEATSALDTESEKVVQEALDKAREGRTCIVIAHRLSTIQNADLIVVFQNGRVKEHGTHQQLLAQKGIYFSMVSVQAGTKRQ

In the case of `CC(=O)Nc1ccc2c(c1)Cc1ccccc1-2` [2-ACETYLAMINOFLUORENE], the Activity result in data set [1] and in data set [2] was “inducer [+]” each time.
